Structures can show the parent of a compound that is named as a salt.
Tested on: IL-1β secretion, THP-1 cells
Experiment: IL-1β secretion assay in PMA-differentiated THP-1 cells stimulated with LPS and nigericin (ELISA readout)
Format: cell-based
Conditions: Homo sapiens, THP-1, inhibition of IL-1β secretion, 25 ng/mL LPS then nigericin
In short: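 THP-1 cells differentiated with 5 ng/mL PMA for 40 h, primed in serum-free medium with 25 ng/mL LPS for 2 h, then compound (0.5% DMSO) for 1 h before nigericin for 2 h at 37°C. Supernatant IL-1β quantified by ELISA; normalized to high (LPS + 5 µM nigericin) and low (LPS only) controls.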

Structure (SMILES)	IC50 (class column of Table 3) [µM]	IC50 (numeric column of Table 3) [µM]
O=C(Cn1nc(C(F)F)c2cc(C(F)(F)F)ccc2c1=O)Nc1ncc(F)cn1 [Example 25, 2-[4-(difluoromethyl)-1-oxo-6-(trifluoromethyl)phthalazin-2-yl]-N-(5-fluoropyrimidin-2-yl)acetamide]	< 10	0.689
CC(C)c1nn(CC(=O)Nc2cnn(C3CCC3)c2)c(=O)c2ccc(Br)cc12 [Example 48, 2-(6-bromo-1-oxo-4-propan-2-ylphthalazin-2-yl)-N-(1-cyclobutylpyrazol-4-yl)acetamide]	< 10	4.09
CC(C)c1nn(CC(=O)NCC2CCOC2)c(=O)c2ccc(Br)cc12 (stereo not drawn) [Example 75, 2-(6-bromo-1-oxo-4-propan-2-ylphthalazin-2-yl)-N-(oxolan-3-ylmethyl)acetamide]	< 10	2.85
CC(C)c1nn(C(C)C(=O)Nc2ncncc2F)c(=O)c2ccc(Br)cc12 (stereo not drawn) [Example 14, 2-(6-bromo-1-oxo-4-propan-2-ylphthalazin-2-yl)-N-(5-fluoropyrimidin-4-yl)propanamide]	< 10	3.66
CC(C)c1nn(CC(=O)Nc2ccnc(C(F)(F)F)n2)c(=O)c2ccc(Br)cc12 [Example 34, 2-(6-bromo-1-oxo-4-propan-2-ylphthalazin-2-yl)-N-[2-(trifluoromethyl)pyrimidin-4-yl]acetamide]	< 10	1.89
O=C(Cn1nc(OC2CC2)c2cc(Br)ccc2c1=O)N[C@@H]1CCCN(C2CC2)C1 [Example 178]	< 10	0.14
CSc1ccc2c(=O)n(CC(=O)Nc3ncncc3F)nc(C(C)C)c2n1 [Example 23, N-(5-fluoropyrimidin-4-yl)-2-(2-methylsulfanyl-5-oxo-8-propan-2-ylpyrido[2,3-d]pyridazin-6-yl)acetamide]	< 10	2.07
CC(C)c1nn(CC(=O)Nc2ncc(F)cc2Cl)c(=O)c2ccc(Br)cc12 [Example 115, 2-(6-bromo-1-oxo-4-propan-2-ylphthalazin-2-yl)-N-(3-chloro-5-fluoropyridin-2-yl)acetamide]	< 10	1.53
O=C(Cn1nc(OC2CC2)c2cc(Br)ccc2c1=O)N[C@@H]1CCCNC1 [Example 176, 2-(6-bromo-4-cyclopropyloxy-1-oxophthalazin-2-yl)-N-[(3R)-piperidin-3-yl]acetamide HCl salt]	< 10	4.27
CC(C)c1nn(CC(=O)N[C@H]2C[C@@](C)(O)C2)c(=O)c2cc(Br)ccc12 [Example 2, 2-(7-Bromo-4-isopropyl-1-oxophthalazin-2(1H)-yl)-N-(cis-3-hydroxy-3-methylcyclobutyl)acetamide]	< 10	2.11
CCN1CCC[C@@H](NC(=O)Cn2nc(C(C)C)c3cc(C)ccc3c2=O)C1 [Example 4]	< 10	1.83
CC(C)c1nn(CC(=O)Nc2ncncc2F)c(=O)c2ccc(OC(F)(F)F)cc12 [Example 15, N-(5-fluoropyrimidin-4-yl)-2-[1-oxo-4-propan-2-yl-6-(trifluoromethoxy)phthalazin-2-yl]acetamide]	< 10	6.27
Cc1ncc(F)c(NC(=O)Cn2nc(C(C)C)c3cc(Br)ccc3c2=O)n1 [Example 31, 2-(6-bromo-1-oxo-4-propan-2-ylphthalazin-2-yl)-N-(5-fluoro-2-methylpyrimidin-4-yl)acetamide]	< 10	1.32
CC(C)(C)OC(=O)N1CCC[C@@H](NC(=O)Cn2nc(OC3CC3)c3cc(Br)ccc3c2=O)C1 [Example 175, tert-butyl (3R)-3-[[2-(6-bromo-4-cyclopropyloxy-1-oxophthalazin-2-yl)acetyl]amino]piperidine-1-carboxylate]	< 10	8.65
CC(C)c1nn(CC(=O)NCC2CCCN2)c(=O)c2ccc(Br)cc12 (stereo not drawn) [Example 108, 2-(6-bromo-1-oxo-4-propan-2-ylphthalazin-2-yl)-N-(pyrrolidin-2-ylmethyl)acetamide HCl salt]	< 10	8.23

Reference: patent US20230357162A1, “COMPOUNDS, COMPOSITIONS AND METHODS” (Denali Therapeutics Inc., priority 2020, published 2023)
